Molecular target: T1, MtPPO7 (Thermothelomyces thermophilus, UniProt A0A1C9CXH9)
T1 construct: secreted enzyme over-expressed in homologous M. thermophila C1 (low protease/low (hemi-)cellulase strain), fractionated from culture broth; KX772412 is printed as 'UniProt' but has GenBank format
T1 sequence (A0A1C9CXH9 19-420): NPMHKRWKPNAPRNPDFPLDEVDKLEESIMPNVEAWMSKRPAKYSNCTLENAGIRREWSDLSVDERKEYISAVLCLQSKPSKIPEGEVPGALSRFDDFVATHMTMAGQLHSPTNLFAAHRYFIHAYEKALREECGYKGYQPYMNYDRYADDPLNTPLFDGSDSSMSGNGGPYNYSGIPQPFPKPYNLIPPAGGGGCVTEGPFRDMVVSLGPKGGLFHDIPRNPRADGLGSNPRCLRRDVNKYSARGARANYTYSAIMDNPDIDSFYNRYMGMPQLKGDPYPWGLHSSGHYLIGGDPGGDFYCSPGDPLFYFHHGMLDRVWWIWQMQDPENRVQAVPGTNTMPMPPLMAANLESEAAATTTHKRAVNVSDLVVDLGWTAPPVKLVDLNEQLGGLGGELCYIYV
Experiment: UHPLC-UV-MSn of substrate conversion
Assay type: biochemical
Settings: 2 mM substrate, 5.0 ug/mL enzyme, 50 mM potassium phosphate pH 6.0, 2.5 uM CuCl2, 50 °C, 24 h; ortho-hydroxylation

COc1ccccc1O [compound 9, Guaiacol]
conversion (%): The conversion of guaiacol by MtPPO7 resulted in the initial formation of 3-methoxycatechol
